Legend:
HCT116 MTAP null cells = test: HCT116 MTAP null cell line proliferation / cell viability (CellTiter-Glo, 6 days); assay type: cell-based; details: 144 h; HCT116 MTAP null cells, 6 days treatment, CellTiter-Glo cell viability; read-out: HCT-116 MTAP null IC50
Outline: (§1)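 WT vs MTAP-null HCT116, 6 d drug, CTG readout. 1:3 × 8–9 pts (top 1/10 μM) or 1:2 × 22 pts (top 10/50 μM). IC50 by 4PL or Hill −1 fit.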

HCT116 WT cells = test: HCT116 WT (parent) cell line proliferation / cell viability (CellTiter-Glo, 6 days); assay type: cell-based; details: Homo sapiens, HCT-116, 144 h, 6 days treatment
Outline: as §1

Structure (SMILES)	IC50 (HCT116 MTAP null cells) [nM]	IC50 (HCT116 WT cells) [nM]
CN(C(=O)c1ccc2nc(N)c3cnn(C)c3c2c1)[C@H]1COc2cc(C(F)(F)F)cc(Cl)c21 [Example 232, 4-amino-N-((3R)-4-chloro-6-(trifluoromethyl)-2,3-dihydro-1-benzofuran-3-yl)-N,1-dimethyl-1H-pyrazolo[4,3-c]-quinoline-8-carboxamide]	222	2490
CN(C(=O)c1ccc2nc(N)c3cnn(C)c3c2c1)[C@@H]1COc2cc(Br)cnc21 [Example 235, 4-amino-N-((3S)-6-bromo-2,3-dihydrofuro[3,2-b]pyridin-3-yl)-N,1-dimethyl-1H-pyrazolo[4,3-c]quinoline-8-carboxamide]	219	10000
CN(C(=O)c1ccc2nc(N)c3cnn(C)c3c2c1)[C@H]1COc2cc(Br)cnc21 [Example 236, 4-amino-N-((3R)-6-bromo-2,3-dihydrofuro[3,2-b]pyridin-3-yl)-N,1-dimethyl-1H-pyrazolo[4,3-c]quinoline-8-carboxamide]	786	24200
CN(C(=O)c1cc2c(cn1)nc(N)c1cnn(C)c12)[C@@H]1COc2cc(C(F)(F)F)ccc21 [Example 237, 4-amino-N,1-dimethyl-N-((3S)-6-(trifluoromethyl)-2,3-dihydro-1-benzofuran-3-yl)-1H-pyr-azolo[4,3-c][1,7]naphthyridine-8-carboxamide]	12	192
CN(C(=O)c1cc2c(cn1)nc(N)c1cnn(C)c12)[C@@H]1COc2cc(S(F)(F)(F)(F)F)ccc21 [Example 240, 4-amino-N,1-dimethyl-N-((3S)-6-(pentafluoro-lambda~6~-sulfanyl)-2,3-dihydro-1-benzofuran-3-yl)-1H-pyrazolo[4,3-c][1,7]naph-thyridine-8-carboxamide]	13	250
CCN(C(=O)c1cc2c(cc1F)nc(N)c1cnn(C)c12)[C@H]1COc2cc(C(F)(F)F)ccc21 [Example 244, 4-amino-N-ethyl-7-fluoro-1-methyl-N-((3R)-6-(trifluoro-methyl)-2,3-dihydro-1-benzo-furan-3-yl)-1H-pyrazolo[4,3-c]quinoline-8-carboxamide]	182	7440
Cc1nc2nc(N)c3cnn(C)c3c2cc1C(=O)N(C)[C@@H]1COc2cc(Cl)c(Cl)cc21 [Example 252, 4-amino-N-((3S)-5,6-dichloro-2,3-dihydro-1-benzofuran-3-yl)-N,1,7-trimethyl-1H-pyrazolo[4,3-c][1,8]naphthyr-idine-8-carboxamide]	19	234
CN(C(=O)c1cc2c(cc1C(F)(F)F)nc(N)c1cnn(C)c12)[C@@H]1COc2cc(C(F)(F)F)ccc21 [Example 253, 4-amino-N,1-dimethyl-7-(trifluoromethyl)-N-((3S)-6-(trifluoromethyl)-2,3-dihydro-1-benzofuran-3-yl)-1H-pyrazolo[4,3-c]quinoline-8-carboxamide]	35	2100
CN(C(=O)c1cc(F)c2nc(N)c3cnn(C)c3c2c1)[C@@H]1COc2cc(C(F)(F)F)ccc21 [Example 254, 4-amino-6-fluoro-N,1-dimethyl-N-((3S)-6-(trifluoromethyl)-2,3-dihydro-1-benzofuran-3-yl)-1H-pyrazolo[4,3-c]quinoline-8-carboxamide]	308	20200
CN(C(=O)c1ccc2nc(N)c3c(cnn3C)c2c1)[C@@H]1COc2cc(S(F)(F)(F)(F)F)ccc21 [Example 255, 4-amino-N,3-dimethyl-N-((3S)-6-(pentafluoro-lambda~6~- sulfanyl)-2,3-dihydro-1-benzo-furan-3-yl)-3H-pyrazolo[3,4-c]quinoline-8-carboxamide]	47	2400
CN(C(=O)c1cc2c(cn1)nc(N)c1c2cnn1C)[C@@H]1COc2cc(C(F)(F)F)ccc21 [Example 256, 4-amino-N,3-dimethyl-N-((3S)-6-(trifluoromethyl)-2,3-dihydro-1-benzofuran-3-yl)-3H-pyrazolo[3,4-c][1,7]naphthyr-idine-8-carboxamide]	143	7500
CN(C(=O)c1cc2c(cn1)nc(N)c1c2cnn1C)[C@@H]1COc2cc(S(F)(F)(F)(F)F)ccc21 [Example 257, 4-amino-N,3-dimethyl-N-((3S)-6-(pentafluoro-lambda~6~-sulfanyl)-2,3-dihydro-1-benzofuran-3-yl)-3H-pyrazolo[3,4-c][1,7]naph-thyridine-8-carboxamide]	59	2020
CN(C(=O)c1cc2c(cc1F)nc(N)c1c2cnn1C)[C@@H]1COc2cc(C(F)(F)F)ccc21 [Example 258, 4-amino-7-fluoro-N,3-dimethyl-N-((3S)-6-(trifluoromethyl)-2,3-dihydro-1-benzofuran-3-yl)-3H-pyrazolo[3,4-c]quinoline-8-carboxamide]	54	4030
CN(C(=O)c1cc2c(cc1F)nc(N)c1c2cnn1C)[C@@H]1COc2cc(OC(F)(F)F)ccc21 [Example 259, 4-amino-7-fluoro-N,3-dimethyl-N-((3S)-6-(trifluoromethoxy)-2,3-dihydro-1-benzofuran-3-yl)-3H-pyrazolo[3,4-c]quinoline-8-carboxamide]	62	3240
CN(C(=O)c1cc2c(cc1F)nc(N)c1c2cnn1C)[C@@H]1COc2cc(-c3cnn(C(F)(F)F)c3)ccc21 [Example 260, 4-amino-7-fluoro-N,3-dimethyl-N-((3S)-6-(1-(trifluoromethyl)-1H-pyrazol-4-yl)-2,3-dihydro-1-benzofuran-3-yl)-3H-pyrazolo-[3,4-c]quinoline-8-carboxamide]	82	10500
CN(C(=O)c1ccc2nc(N)c3cn[nH]c3c2c1)[C@@H]1COc2cc(C(F)(F)F)ccc21 [Example 261, 4-amino-N-methyl-N-((3S)-6-(trifluoromethyl)-2,3-dihydro-1-benzofuran-3-yl)-1H-pyrazolo[4,3-c]quinoline-8-carboxamide]	15	703
Cc1n[nH]c2c1c(N)nc1ccc(C(=O)N(C)[C@@H]3COc4cc(C(F)(F)F)ccc43)cc12 [Example 262, 4-amino-N,3-dimethyl-N-((3S)-6-(trifluoromethyl)-2,3-dihydro-1-benzofuran-3-yl)-1H-pyrazolo[4,3-c]quinoline-8-carboxamide]	65	1950
Cc1nn(C)c2c1c(N)nc1ccc(C(=O)N(C)[C@@H]3COc4cc(C(F)(F)F)ccc43)cc12 [Example 263, 4-amino-N,1,3-trimethyl-N-((3S)-6-(trifluoromethyl)-2,3-dihydro-1-benzofuran-3-yl)-1H-pyrazolo[4,3-c]quinoline-8-carboxamide]	58	2010

Now those with a lower IC50 (HCT116 MTAP null cells), led by results:

IC50 (HCT116 MTAP null cells) [nM]	IC50 (HCT116 WT cells) [nM]	Structure (SMILES)
8	613	CN(C(=O)c1ccc2nc(N)c3cnn(C)c3c2c1)[C@@H]1COc2cc(Br)ccc21 [Example 234, 4-amino-N-((3S)-6-bromo-2,3-dihydro-1-benzofuran-3-yl)-N,1-dimethyl-1H-pyrazolo[4,3-c]quinoline-8-carboxamide]
10	168	CN(C(=O)c1cc2c(cn1)nc(N)c1cnn(C)c12)[C@@H]1COc2cc(OC(F)(F)F)ccc21 [Example 239, 4-amino-N,1-dimethyl-N-((3S)-6-(trifluoromethoxy)-2,3-dihydro-1-benzofuran-3-yl)-1H-pyrazolo[4,3-c][1,7]-naphthyridine-8-carboxamide]
9	388	CN(C(=O)c1cc2c(cn1)nc(N)c1cnn(C)c12)[C@@H]1COc2cc(-c3cnn(C(F)(F)F)c3)ccc21 [Example 241, 4-amino-N,1-dimethyl-N-((3S)-6-(1-(trifluoromethyl)-1H-pyrazol-4-yl)-2,3-dihydro-1-benzofuran-3-yl)-1H-pyr-azolo[4,3-c][1,7]naphthyridine-8-carboxamide]
9	82	CCN(C(=O)c1cc2c(cc1F)nc(N)c1cnn(C)c12)[C@@H]1COc2cc(C(F)(F)F)ccc21 [Example 243, 4-amino-N-ethyl-7-fluoro-1-methyl-N-((3S)-6-(trifluoro-methyl)-2,3-dihydro-1-benzo-furan-3-yl)-1H-pyrazolo[4,3-c]-quinoline-8-carboxamide]
5	304	CN(C(=O)c1cc2c(cc1F)nc(N)c1cnn(C)c12)[C@@H]1COc2cc(-c3cnn(C(F)(F)F)c3)ccc21 [Example 247, 4-amino-7-fluoro-N,1-dimethyl-N-((3S)-6-(1-(trifluoromethyl)-1H-pyrazol-4-yl)-2,3-dihydro-1-benzofuran-3-yl)-1H-pyrazolo[4,3-c]quinoline-8-carboxamide]
3	66	CN(C(=O)c1cc2c(cc1Cl)nc(N)c1cnn(C)c12)[C@@H]1COc2cc(-c3cnn(C(F)(F)F)c3)ccc21 [Example 249, 4-amino-7-chloro-N,1-dimethyl-N-((3S)-6-(1-(trifluoromethyl)-1H-pyrazol-4-yl)-2,3-dihydro-1-benzo-furan-3-yl)-1H-pyrazolo[4,3-c]quinoline-8-carboxamide]
2	46	Cc1cc2nc(N)c3cnn(C)c3c2cc1C(=O)N(C)[C@@H]1COc2cc(C(F)(F)F)ccc21 [Example 250, 4-amino-N,1,7-trimethyl-N-((3S)-6-(trifluoromethyl)-2,3-dihydro-1-benzofuran-3-yl)-1H-pyrazolo[4,3-c]quinoline-8-carboxamide]
7	217	Cc1nc2nc(N)c3cnn(C)c3c2cc1C(=O)N(C)[C@@H]1COc2cc(C(F)(F)F)ccc21 [Example 251, 4-amino-N,1,7-trimethyl-N-((3S)-6-(trifluoromethyl)-2,3-dihydro-1-benzofuran-3-yl)-1H-pyrazolo[4,3-c][1,8]-naphthyridine-8-carboxamide]
